Source: patent publication US7919508B2, “3-piperidinylisochroman-5-ols as dopamine agonists” (Aventis Pharmaceuticals Inc., priority 2004, dated 2011)
Structures can show the parent of a compound that is named as a salt. Where two headings read alike, the source gives them in different places.

Tests used:
D1 receptor = target: T1, D1 receptor (Homo sapiens, UniProt P21728); assay: D1 Activation Adenylyl Cyclase Assay (cAMP FlashPlate, D1 transfected CHO cell line); assay type: cell-based
T1 construct: expressed in transfected cells; host or cells: D1 transfected CHO cell line
How it was run: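 D1-transfected CHO cells (50,000/well) were exposed to compound 1/10 serial dilutions for 8 min at RT; cAMP measured by competitive 125I-cAMP FlashPlate against a standard curve. Response normalised between basal and saturating D1 agonist; EC50 at half-maximal stimulation, plateau reported as % maximal dopamine stimulation.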

[1] = target: human dopamine D2Long (D2L) receptors (Homo sapiens, UniProt P14416)
[2] = target: T2, human dopamine D1 receptor (Homo sapiens, UniProt P21728); assay: [3H]-SCH-23390 binding to cloned human dopamine D1 receptors (CHO cell membranes)
T2 construct: A 1.4 Kb Hind III to Xho I fragment was subcloned into the vector pMMLV; expressed in transfected cells; host or cells: CHO cells, clone CHO-D1M#9 (plasmid pHD1MMLV), membranes

[3] = agonist activity at the D1 receptor, adenylate cyclase assay, D1 transfected CHO cell line, read-out: D1 EC50
[4] = competitive binding, [3H]-SCH-23390, cloned human D1 in CHO membranes, read-out: D1 affinity Ki

Sequence of human dopamine D2Long (D2L) receptors (P14416 whole entry): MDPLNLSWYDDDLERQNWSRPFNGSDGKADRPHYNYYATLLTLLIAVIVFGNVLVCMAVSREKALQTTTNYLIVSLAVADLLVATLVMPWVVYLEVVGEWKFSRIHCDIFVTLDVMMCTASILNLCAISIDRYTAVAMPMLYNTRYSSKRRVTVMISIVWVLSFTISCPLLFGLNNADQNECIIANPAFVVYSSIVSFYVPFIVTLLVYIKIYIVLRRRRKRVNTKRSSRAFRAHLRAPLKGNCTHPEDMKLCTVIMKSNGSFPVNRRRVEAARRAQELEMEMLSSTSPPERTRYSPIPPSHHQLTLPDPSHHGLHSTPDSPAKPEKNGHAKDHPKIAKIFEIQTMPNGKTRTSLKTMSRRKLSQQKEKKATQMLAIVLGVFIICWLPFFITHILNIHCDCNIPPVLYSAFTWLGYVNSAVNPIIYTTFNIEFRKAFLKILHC
T1 sequence (P21728 whole entry): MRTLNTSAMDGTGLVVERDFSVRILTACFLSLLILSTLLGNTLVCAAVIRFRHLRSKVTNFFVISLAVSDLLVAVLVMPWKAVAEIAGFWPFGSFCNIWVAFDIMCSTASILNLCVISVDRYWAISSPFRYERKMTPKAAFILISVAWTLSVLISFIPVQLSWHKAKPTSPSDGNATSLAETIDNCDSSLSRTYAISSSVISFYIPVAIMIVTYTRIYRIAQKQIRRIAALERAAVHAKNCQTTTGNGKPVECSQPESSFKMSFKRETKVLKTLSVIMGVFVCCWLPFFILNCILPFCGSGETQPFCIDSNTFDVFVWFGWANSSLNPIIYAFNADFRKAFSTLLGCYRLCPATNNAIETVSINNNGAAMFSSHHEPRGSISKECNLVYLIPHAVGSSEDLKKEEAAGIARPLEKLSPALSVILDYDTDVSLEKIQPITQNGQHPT
T2 sequence (P21728 whole entry, the tested form may be a part): as the sequence (P21728 whole entry) above

EC50 (D1 receptor; [3]) [µM]	Ki [1] [µM]	Ki [2, 4] [µM]	SMILES	EC50 (D1 receptor) [µM]	Ki [2] [µM]
6	≥ 10	0.106	Cc1ccc2c(c1O)C[C@@H](C1CCN(C(=O)Nc3ccc(F)cc3)CC1)O[C@H]2CN [Example 128, 4-((1R,3S)-1-Aminomethyl-5-hydroxy-6-methyl-isochroman-3-yl)-piperidine-1-carboxylic acid (4-fluoro-phenyl)-amide hydrochloride]		
0.015	0.239	0.0603	CNC[C@@H]1O[C@H](C2CCN(Cc3ccc(-c4ccccc4)cc3)CC2)Cc2c1ccc(C)c2O [Example 98, (1R,3S)-3-(1-Biphenyl-4-ylmethyl-piperidin-4-yl)-6-methyl-1-methylaminomethyl-isochroman-5-ol dihydrochloride]		
0.011	0.288	0.034	Cc1cccc(CN2CCC([C@@H]3Cc4c(ccc(C)c4O)[C@H](CN)O3)CC2)c1 [Example 65, (1R,3S)-1-Aminomethyl-6-methyl-3-[1-(3-methyl-benzyl)-piperidin-4-yl]-isochroman-5-ol dihydrochloride]		
0.015	≥ 10	0.0607	Cc1ccc2c(c1O)C[C@@H](C1CCN(Cc3cccnc3)CC1)O[C@H]2CN [Example 53, (1R,3S)-1-Aminomethyl-6-methyl-3-(1-pyridin-3-ylmethyl-piperidin-4-yl)-isochroman-5-ol dihydrochloride]		
0.035	≥ 100	0.0645	Cc1ccc2c(c1O)C[C@@H](C1CCN(S(=O)(=O)CCc3cccc4ccccc34)CC1)O[C@H]2CN [Example 159, (1R,3S)-1-Aminomethyl-6-methyl-3-[1-(2-naphthalen-1-yl-ethanesulfonyl)-piperidin-4-yl]-isochroman-5-ol hydrochloride]		
0.0064	≥ 10	0.051	Cc1ccc2c(c1O)C[C@@H](C1CCN(C(=O)N(C)c3ccccc3)CC1)O[C@H]2CN [Example 131, 4-((1R,3S)-1-Aminomethyl-5-hydroxy-6-methyl-isochroman-3-yl)-piperidine-1-carboxylic acid methyl-phenyl-amide hydrochloride]		
0.01	≥ 10	0.053	Cc1ccc2c(c1O)C[C@@H](C1CCN(CC3CC3)CC1)O[C@H]2CN [Example 38, (1R,3S)-1-Aminomethyl-3-(1-cyclopropylmethyl-piperidin-4-yl)-6-methyl-isochroman-5-ol dihydrochloride]		
0.029	0.278	0.045	Cc1ccc2c(c1O)C[C@@H](C1CCN(CCc3ccccc3)CC1)O[C@H]2CN [Example 106, (1R,3S)-1-Aminomethyl-6-methyl-3-(1-phenethyl-piperidin-4-yl)-isochroman-5-ol dihydrobromide]		
0.014	≥ 100	0.12	Cc1ccc2c(c1O)C[C@@H](C1CCN(CCC(C)NC(=O)c3ccccc3)CC1)O[C@H]2CN (stereo partly drawn) [Example 21, N-{3-[4-((1R,3S)-1-Aminomethyl-5-hydroxy-6-methyl-isochroman-3-yl)-piperidin-1-yl]-1-methyl-propyl}-benzamide dihydrochloride]		
0.033	0.322	0.0922	CNC[C@@H]1O[C@H](C2CCN(Cc3ccc(C)cc3)CC2)Cc2c1ccc(C)c2O [Example 101, (1R,3S)-6-Methyl-1-methylaminomethyl-3-[1-(4-methyl-benzyl)-piperidin-4-yl]-isochroman-5-ol dihydrochloride]		
0.11	≥ 10	0.0964	Cc1ccc2c(c1O)C[C@@H](C1CCN(Cc3ccc4ccccc4c3)CC1)O[C@H]2CN [Example 45, (1R,3S)-1-Aminomethyl-6-methyl-3-(1-naphthalen-2-ylmethyl-piperidin-4-yl)-isochroman-5-ol dihydrochloride]		
0.11	≥ 10	0.0861	Cc1ccc2c(c1O)C[C@@H](C1CCN(CCO)CC1)O[C@H]2CN [Example 43, (1R,3S)-1-Aminomethyl-3-[1-(2-hydroxy-ethyl)-piperidin-4-yl]-6-methyl-isochroman-5-ol dihydrochloride]		
0.015	0.431	0.0635	Cc1ccc2c(c1O)C[C@@H](C1CCN(Cc3cccc(C(F)(F)F)c3)CC1)O[C@H]2CN [Example 73, (1R,3S)-1-Aminomethyl-6-methyl-3-[1-(3-trifluoromethyl-benzyl)-piperidin-4-yl]-isochroman-5-ol dihydrochloride]		
0.11	0.356	0.0179	Cc1ccc2c(c1O)C[C@@H](C1CCN(Cc3cccc(Cl)c3)CC1)O[C@H]2CN [Example 37, (1R,3S)-1-Aminomethyl-3-[1-(3-chloro-benzyl)-piperidin-4-yl]-6-methyl-isochroman-5-ol dihydrobromide]		
0.06	≥ 100	0.0431	CNC[C@@H]1O[C@H](C2CCN(Cc3ccc(F)c(F)c3)CC2)Cc2c1ccc(C)c2O [Example 100, (1R,3S)-3-[1-(3,4-Difluoro-benzyl)-piperidin-4-yl]-6-methyl-1-methylaminomethyl-isochroman-5-ol dihydrochloride]		
0.002	0.197	0.014	Cc1ccc2c(c1O)C[C@@H](C1CCN(Cc3ccc(Cl)c(C(F)(F)F)c3)CC1)O[C@H]2CN [Example 78, (1R,3S)-1-Aminomethyl-3-[1-(4-chloro-3-trifluoromethyl-benzyl)-piperidin-4-yl]-6-methyl-isochroman-5-ol dihydrochloride]		
0.078	0.31	0.0482	Cc1ccc2c(c1O)C[C@@H](C1CCN(Cc3ccc(-c4ccccc4)cc3)CC1)O[C@H]2CN [Example 49, (1R,3S)-1-Aminomethyl-3-(1-biphenyl-4-ylmethyl-piperidin-4-yl)-6-methyl-isochroman-5-ol dihydrochloride]		
0.012	0.443	0.0462	Cc1ccc2c(c1O)C[C@@H](C1CCN(Cc3ccc(Cl)cc3Cl)CC1)O[C@H]2CN [Example 59, (1R,3S)-1-Aminomethyl-3-[1-(2,4-dichloro-benzyl)-piperidin-4-yl]-6-methyl-isochroman-5-ol dihydrochloride]		
0.22	0.12	0.042	Cc1ccc2c(c1O)C[C@@H](C1CCN(Cc3cc(C(F)(F)F)cc(C(F)(F)F)c3)CC1)O[C@H]2CN [Example 75, (1R,3S)-1-Aminomethyl-3-[1-(3,5-bis-trifluoromethyl-benzyl)-piperidin-4-yl]-6-methyl-isochroman-5-ol dihydrochloride]		
0.00098	0.0934	0.0292	Cc1ccc2c(c1O)C[C@@H](C1CCN(Cc3nc4ccccc4n3C)CC1)O[C@H]2CN [Example 92, (1R,3S)-1-Aminomethyl-6-methyl-3-[1-(1-methyl-1H-benzoimidazol-2-ylmethyl)-piperidin-4-yl]-isochroman-5-ol trihydrochloride]		
0.054	0.218	0.0561	Cc1ccc2c(c1O)C[C@@H](C1CCN(CCC(C)NC(=O)c3cccs3)CC1)O[C@H]2CN (stereo partly drawn) [Example 25, Thiophene-2-carboxylic acid {3-[4-((1R,3S)-1-aminomethyl-5-hydroxy-6-methyl-isochroman-3-yl)-piperidin-1-yl]-1-methyl-propyl}-amide dihydrochloride]		
0.011	0.477	0.077	Cc1ccc2c(c1O)C[C@@H](C1CCN(CCNC(=O)Nc3ccc(F)cc3)CC1)O[C@H]2CN [Example 192, (1R,3S)-1-{2-[4-(1-Aminomethyl-5-hydroxy-6-methyl-isochroman-3-yl)-piperidin-1-yl]ethyl}-3-(4-fluoro-phenyl)urea dihydrobromide]		
0.026	≥ 10	0.0374	Cc1ccc2c(c1O)C[C@@H](C1CCN(Cc3ccc(C(C)C)cc3)CC1)O[C@H]2CN [Example 48, (1R 3S)-1-Aminomethyl-3-[1-(4-isopropyl-benzyl)-piperidin-4-yl]-6-methyl-isochroman-5-ol dihydrochloride]		

SMILES	EC50 (D1 receptor; [3]) [µM]	Ki [1] [µM]	Ki [2, 4] [µM]	EC50 (D1 receptor) [µM]	Ki [2] [µM]
Cc1ccc2c(c1O)C[C@@H](C1CCN(C(=O)Oc3ccccc3O)CC1)O[C@H]2CN [Example 121, 4-((1R,3S)-1-Aminomethyl-5-hydroxy-6-methyl-isochroman-3-yl)-piperidine-1-carboxylic acid 2-hydroxy-phenyl ester hydrochloride]		0.613		0.0025	0.031
COc1ccc(OC(=O)N2CCC([C@@H]3Cc4c(ccc(C)c4O)[C@H](CN)O3)CC2)cc1 [Example 120, 4-((1R,3S)-1-Aminomethyl-5-hydroxy-6-methyl-isochroman-3-yl)-piperidine-1-carboxylic acid 4-methoxy-phenyl ester hydrochloride]		0.767		0.036	0.045
Cc1ccc2c(c1O)C[C@@H](C1CCN(C(=O)Oc3ccccc3Cl)CC1)O[C@H]2CN [Example 116, 4-((1R,3S)-1-Aminomethyl-5-hydroxy-6-methyl-isochroman-3-yl)-piperidine-1-carboxylic acid 2-chloro-phenyl ester hydrochloride]		≥ 100		0.0046	0.0326
Cc1ccc2c(c1O)C[C@@H](C1CCN(C/C=C/c3ccccc3)CC1)O[C@H]2CN [Example 109, (1R,3S)-1-Aminomethyl-6-methyl-3-[1-(3-phenyl-allyl)-piperidin-4-yl]-isochroman-5-ol dihydrobromide]	0.102	0.212	0.108		
